Experimental data as given in patent publication US10532040B2, “Methods of treating cancer with herbacetin” (REGENTS OF THE UNIVERSITY OF MINNESOTA, priority 2011, dated 2020).
“Also recorded” adds a separate entry of the source.

Legend:
[1] = test system: SKH-1 hairless mice, solar UV-induced skin tumors; experiment: solar UV induced-skin tumor mouse model; format: in vivo; conditions: herbacetin 100 or 500 nmol topical for 7 weeks; relative to vehicle group
Description: Mice were exposed to solar-UV (48 kJ/UVA, 2.9 kJ/UVB) 3 times weekly for 12 weeks. The solar UV treatment was discontinued and at twenty weeks later, mice were topically treated with 100 or 500 nmol of herbacetin (in acetone) for an additional 7 weeks. Mice (8-9 weeks old) were divided into three groups: 1) solar UV+vehicle group (n=4); 2) solar UV+100 nmol of herbacetin (n=4) group; 3) solar UV+500 nmol of herbacetin (n=4). The volume of tumors per mouse was recorded weekly.

[2] = test system: HCT116, DLD1, HT29 colon cancer cells; experiment: growth of colon cancer cells, MTS assay; format: cell-based
Description: (§1) FIGS. 3A-3H. Anticancer effect of herbacetin. (a) The effect of herbacetin on ODC activity in colon cancer cell lines was measured as the release of CO2 from L-[1-C^14] ornithine. […] (b) The effect of herbacetin and DFMO on the growth of colon cancer cells and (c) TPA-induced JB6 cell growth was compared. Cells were incubated for 72 h and growth was estimated using the MTS assay. (d) The effect of herbacetin on anchorage independent HCT116 colon cancer cell growth and (e) TPA-induced JB6 cell transformation was assessed. Cells were incubated for 2 weeks and then colonies were counted using a microscope and the Image-Pro PLUS (v.6) computer software program. The effect of herbacetin on AP-1 reporter activity in (f) HCT116 colon cancer cells and (g) TPA-induced AP-1 reporter activity in JB6 mouse epidermal cells was analyzed using the substrates included in the reporter assay system. Data are represented as means±S.D. of triplicate values from three independent experiments and the asterisk (*) indicates a significant (p<0.05) effect of herbacetin or DFMO compared to untreated or TPA-treated controls. (h) The effect of herbacetin on the phosphorylation of ERK1 and ERK2 in HCT116 colon cancer cells was determined by Western blotting. Similar results were observed from two independent experiments.

[3] = test system: activator protein-1 (AP-1); experiment: AP-1 reporter activity in HCT116 cells; format: cell-based; conditions: HCT116 cells treated 48 h
Description: as §1, with “Data are represented as means±S.D. of triplicate values from three independent experiments and the asterisk (*) indicates a significant (p<0.05) effect of herbacetin or DFMO compared to untreated or TPA-treated controls.” left out, “Similar results were observed from two independent experiments.” left out
(§2) We determined whether herbacetin affected the reporter activity of the MAP kinase target transcription factor, activator protein-1 (AP-1), in HCT116 cells or JB6 cells stimulated with TPA. […] AP-1 reporter activity was then measured (FIG. 3f, g) and the activity was attenuated by herbacetin in colon cancer cells and in TPA-activated JB6 cells. […]

[4] = test system: activator protein-1 (AP-1); experiment: TPA-induced AP-1 reporter activity in JB6 cells; format: cell-based, mouse; conditions: JB6 cells pre-treated 2 h, then TPA 48 h
Description: as §1, with “Data are represented as means±S.D. of triplicate values from three independent experiments and the asterisk (*) indicates a significant (p<0.05) effect of herbacetin or DFMO compared to untreated or TPA-treated controls.” left out, “Similar results were observed from two independent experiments.” left out
as §2

[5] = test system: ERK1/2, p90^RSK; experiment: Western blotting of ERK1/2 and p90RSK phosphorylation in HCT116 cells; format: cell-based
Description: as §1, with “Data are represented as means±S.D. of triplicate values from three independent experiments and the asterisk (*) indicates a significant (p<0.05) effect of herbacetin or DFMO compared to untreated or TPA-treated controls.” left out, “Similar results were observed from two independent experiments.” left out
as §2

[6] = test system: HCT116 cells; experiment: HCT116 xenograft in athymic nude mice; format: in vivo, mouse
Description: Athymic nude mice were inoculated in the right flank with HCT116 cells. Tumors were allowed to grow to an average of 40 mm^3 and then mice were divided into four equal groups with the same average tumor volume (FIG. 10). Treatment was initiated on Day 8 and continued to Day 20. […] No difference between treatment with 0.4 mg/kg B.W. herbacetin, 2 mg/kg B.W herbacetin or 200 mg/kg DFMO was observed.

[7] = test system: ERKs/RSK2 signaling; experiment: TPA- or EGF-induced phosphorylation of ERK1 and ERK2 in JB6 cells, Western blotting; format: cell-based, mouse; conditions: herbacetin 2 h then TPA or EGF 15 min
Description: FIGS. 6A-6B. The effect of herbacetin on (a) TPA- or (b) EGF-induced phosphorylation of ERK1 and ERK2 in JB6 mouse epidermal cells was analyzed by Western blotting. Serum-starved (0.1% FBS; 24 h) cells were treated with various doses of herbacetin for 2 h followed by treatment with TPA for 15 min.
We determined whether herbacetin affected the reporter activity of the MAP kinase target transcription factor, activator protein-1 (AP-1), in HCT116 cells or JB6 cells stimulated with TPA. HCT116 cells were treated with herbacetin for 48 hand JB6 cells were pre-treated with herbacetin for 2 h before stimulation with TPA for 48 h. AP-1 reporter activity was then measured (FIG. 3f, g) and the activity was attenuated by herbacetin in colon cancer cells and in TPA-activated JB6 cells. […] We next examined whether herbacetin directly suppresses phosphorylation of ERK1/2. JB6 cells were treated with TPA or EGF for 15 min after pre-treatment with herbacetin for 2 h and protein expression was analyzed by Western blotting (Supplementary FIG. 2a,b).

[8] = test system: JB6 mouse epidermal skin cells; experiment: proliferation and colony formation of JB6 mouse epidermal skin cells; format: cell-based; conditions: preliminary data
Description: as §1

[9] = target: T1, ODC (Homo sapiens, UniProt P11926); experiment: ODC activity in colon cancer cells (HCT116, DLD-1 lysates); format: cell-based; parameters: endogenous in cells; host or cells: HCT116 and DLD-1 colon cancer cells (lysates); conditions: compared with DFMO
T1 sequence (P11926 1-461): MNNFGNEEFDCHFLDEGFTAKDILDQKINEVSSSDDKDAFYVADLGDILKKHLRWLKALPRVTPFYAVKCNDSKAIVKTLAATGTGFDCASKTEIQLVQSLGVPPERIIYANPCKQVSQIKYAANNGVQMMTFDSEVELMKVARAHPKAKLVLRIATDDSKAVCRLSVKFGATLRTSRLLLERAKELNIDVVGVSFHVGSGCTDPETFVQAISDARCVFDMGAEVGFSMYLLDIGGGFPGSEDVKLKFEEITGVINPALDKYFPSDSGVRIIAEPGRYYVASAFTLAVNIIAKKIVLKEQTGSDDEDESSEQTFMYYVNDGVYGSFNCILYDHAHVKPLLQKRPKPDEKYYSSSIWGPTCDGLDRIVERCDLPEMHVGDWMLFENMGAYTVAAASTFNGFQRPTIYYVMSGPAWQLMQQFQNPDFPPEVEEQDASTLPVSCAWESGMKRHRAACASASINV
Description: FIGS. 5A-5E. The effect of herbacetin on ODC activity was assessed in (a) DLD-1 and (b) HCT116 colon cancer cells. Cell lysates were incubated for 15 min with reaction buffer and different doses of herbacetin or DFMO and then incubated at 37° C. for 1 h. Herbacetin (c) and kaempferol (d) were modeled as allosteric inhibitors with the ODC crystal structure. (e) The effect of herbacetin or kaempferol on ODC activity was assessed using a human ODC recombinant protein. Each reaction was incubated at 37° C. for 1 h and ODC activity was measured as the release of CO2 from L-[1-C^14] ornithine. Data are represented as means±S.D. of triplicate values. The asterisk (*) indicates a significant difference (p<0.05) between herbacetin-treated samples compared to untreated or kaempferol-treated samples.
ODC activity was measured as the release of CO2 from L-[1-C^14] ornithine as previously described ([…]).

**Q.** Which results are given for `O=c1c(O)c(-c2ccc(O)cc2)oc2c(O)c(O)cc(O)c12` [herbacetin, 3,5,7,8,4′-Pentahydroxyflavone]?
**A.** size (volume) of solar UV-induced skin tumors [1]: significantly decreased; inhibitory effect on growth of colon cancer cell lines ([2]; 72 h, MTS, HCT116, DLD1, HT29): greatest inhibitory effect on colon cancer cells that expressed higher levels of ODC; proliferation and anchorage independent cell growth of several colon cancer cell lines ([2]; preliminary data): decrease proliferation and anchorage independent cell growth; AP-1 reporter activity [3]: attenuated; AP-1 reporter activity [4]: attenuated; phosphorylation of ERK1/2 and p90^RSK [5]: suppressed phosphorylation; potency as therapeutic agent relative to DFMO ([6]; based on concentration): much more potent; tumor volume, comparison between treated groups ([6]; herbacetin 0.4 mg/kg, 2 mg/kg, DFMO 200 mg/kg): No difference; tumor volume, treated groups vs vehicle-treated group ([6]; herbacetin 0.4 or 2 mg/kg B.W., DFMO 200 mg/kg, Day 8 to Day 20): vehicle-treated group were significantly large in volume than any of the three treated groups; direct suppression of ERKs/RSK2 signaling [7]: does not occur directly through the suppression of ERKs/RSK2 signaling; cell proliferation and anchorage independent colony formation [8]: decrease cell proliferation and anchorage independent colony formation; suppression of ODC activity [9]: more effectively; also recorded: markedly more effective than DFMO
